Where “and” joins values, the source holds several entries; their conditions need not be identical. Equal entries are not always repeated. Inconclusive results and toxic doses are left out. Cut-off read from the data, not from the text of the source: active = T/C of 150% or more; inactive = T/C below 125%.
System: L1210 leukemia ip in BDF1 mice, survival T/C
Test: NCI In Vivo Anticancer Drug Screen. Data for tumor model L1210 Leukemia (intraperitoneal) in B6D2F1 (BDF1) mice
Settings: endpoint: mean survival time, higher = longer survival
Outline: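 Mice bearing the transplanted tumor received compound or vehicle. Survival of the treated group was divided by that of the vehicle-treated control group to give the ratio.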

[1] = dose: 100.0 mg/kg/injection, schedule: Q01DX001 (ip), vehicle: saline
[2] = dose: 200.0 mg/kg/injection, schedule: Q01DX001 (ip), vehicle: saline
[3] = dose: 400.0 mg/kg/injection, schedule: Q01DX001 (ip), vehicle: saline
[4] = dose: 100.0 mg/kg/injection, schedule: Q01DX001 (ip), vehicle: carboxymethylcellulose (CMC)
[5] = dose: 200.0 mg/kg/injection, schedule: Q01DX001 (ip), vehicle: carboxymethylcellulose (CMC)
[6] = dose: 400.0 mg/kg/injection, schedule: Q01DX001 (ip), vehicle: carboxymethylcellulose (CMC)
[7] = dose: 100.0 mg/kg/injection, schedule: Q01DX009 (ip), vehicle: saline with Tween-80
[8] = dose: 100.0 mg/kg/injection, schedule: Q04DX003 (ip), vehicle: saline with Tween-80
[9] = dose: 200.0 mg/kg/injection, schedule: Q01DX009 (ip), vehicle: saline with Tween-80
[10] = dose: 200.0 mg/kg/injection, schedule: Q04DX003 (ip), vehicle: saline with Tween-80
[11] = dose: 400.0 mg/kg/injection, schedule: Q04DX003 (ip), vehicle: saline with Tween-80
[12] = dose: 100.0 mg/kg/injection, schedule: Q04DX003 (ip), vehicle: saline
[13] = dose: 200.0 mg/kg/injection, schedule: Q04DX003 (ip), vehicle: saline
[14] = dose: 400.0 mg/kg/injection, schedule: Q04DX003 (ip), vehicle: saline
[15] = dose: 100.0 mg/kg/injection, schedule: Q01DX009 (ip), vehicle: saline
[16] = dose: 200.0 mg/kg/injection, schedule: Q01DX009 (ip), vehicle: saline
[17] = dose: 400.0 mg/kg/injection, schedule: Q01DX009 (ip), vehicle: saline

Measured: T/C

O=C(O)c1ccccc1N1C(=O)c2ccccc2C1=O
inactive: [1] 91 % of control | [2] 96 % of control | [3] 94 % of control

Nc1cc(Br)cc2[nH]c(=O)c3cc(Br)ccc3c12
inactive: [4] 100 % of control | [5] 100 % of control | [6] 102 % of control

Cc1cccc(SC(=O)Cc2ccc([N+](=O)[O-])cc2)c1
inactive: [7] 91 % of control | [8] 109 % of control | [9] 96 % of control | [10] 102 % of control | [11] 119 % of control

COc1cc(/C=C2/CCCCC2=O)ccc1O
inactive: dose: 100.0 mg/kg/injection, schedule: Q04DX003 (ip), vehicle: other 93 % of control | dose: 200.0 mg/kg/injection, schedule: Q04DX003 (ip), vehicle: other 100 % of control | dose: 400.0 mg/kg/injection, schedule: Q04DX003 (ip), vehicle: other 94 % of control

COc1ccc2c(c1)N(C)CCCC2=O
inactive: [12] 96 % of control | [13] 112 % of control | [14] 87 % of control

Cc1ccc(CCl)cc1
inactive: [7] 102 % of control | [8] 100 % of control | [9] 102 % of control | [10] 104 % of control | [11] 102 % of control

CN(C)C(=O)OCC[N+](C)(C)CCCCCC[N+](C)(C)CCOC(=O)N(C)C
inactive: dose: 12.0 mg/kg/injection, schedule: Q04DX003 (ip), vehicle: saline 105 % of control | dose: 25.0 mg/kg/injection, schedule: Q04DX003 (ip), vehicle: saline 96 % of control | dose: 50.0 mg/kg/injection, schedule: Q04DX003 (ip), vehicle: saline 97 % of control | dose: 75.0 mg/kg/injection, schedule: Q04DX003 (ip), vehicle: saline 92 % of control

CCC(C(=O)O)C(C)(C)O (centres undefined)
inactive: [1] 93 % of control | [2] 93 % of control | [3] 103 % of control

CC1(C)NC(C(=O)O)C(C)(C)S1 (centres undefined)
inactive: [1] 100 % of control | [2] 89 % of control | [3] 95 % of control

O=C(Nc1cccc2ccccc12)SCc1ccccc1
inactive: dose: 100.0 mg/kg/injection, schedule: Q04DX002 (ip), vehicle: Klucel (hydroxypropylcellulose) (HPC) 94 % of control | dose: 400.0 mg/kg/injection, schedule: Q04DX002 (ip), vehicle: Klucel (hydroxypropylcellulose) (HPC) 90 % of control

Cc1cc(Cl)c(Cl)cc1NC(=O)Nc1ccccc1F
inactive: dose: 100.0 mg/kg/injection, schedule: Q01DX009 (ip), vehicle: other 89 % of control and 92 % of control | dose: 200.0 mg/kg/injection, schedule: Q01DX009 (ip), vehicle: other 89 % of control | dose: 400.0 mg/kg/injection, schedule: Q01DX009 (ip), vehicle: other 98 % of control and 90 % of control

OCC1OC(n2cnc3c(NO)ncnc32)CC1O (centres undefined)
inactive: dose: 50.0 mg/kg/injection, schedule: Q01DX001 (ip), vehicle: carboxymethylcellulose (CMC) 102 % of control | [4] 109 % of control | [5] 109 % of control | [6] 109 % of control

O=C(CBr)c1ccccc1
inactive: dose: 10.0 mg/kg/injection, schedule: Q04DX003 (ip), vehicle: saline with Tween-80 93 % of control | dose: 20.0 mg/kg/injection, schedule: Q04DX003 (ip), vehicle: saline with Tween-80 97 % of control

CN(C)c1ccc(/C=N/NC(=O)c2ccc(Cl)cc2)cc1
inactive: dose: 50.0 mg/kg/injection, schedule: Q01DX009 (ip), vehicle: saline with Tween-80 100 % of control | [7] 89 % of control

CCCCCC(Oc1ccc(Cl)cc1)C(=O)OCC (centres undefined)
inactive: [15] 101 % of control | [16] 90 % of control | [17] 114 % of control

c1ccc2c(c1)Cc1cc3ccccc3nc1-2
inactive: [8] 106 % of control | [9] 98 % of control | [10] 93 % of control | dose: 400.0 mg/kg/injection, schedule: Q01DX009 (ip), vehicle: saline with Tween-80 90 % of control | [11] 98 % of control

O=C(c1ccccc1)N1CCC(CCO)C(O)C1Cc1c[nH]c2ccccc12 (centres undefined)
inactive: [15] 96 % of control | [12] 100 % of control | [16] 93 % of control | [13] 94 % of control | [17] 98 % of control | [14] 92 % of control

Source: PubChem BioAssay AID248 (DTP/NCI, 2004)
